Columns and labels:
GPR84 [1] = molecular target: T1, GPR84 (Homo sapiens (Human), UniProt Q9NQS5); experiment: Gai biosensor BRET assay (GPR84-mediated activation of Gai, antagonist mode against agonist ZQ-16); assay type: cell-based; conditions: for IC50: HEK293 cells, 200 nmol/L GPR84 agonist ZQ-16, read-out: hGPR84 IC50; for inhibition at 2 µM: compound tested at 2 μM (concentration code A); for inhibition at 10 µM: compound tested at 10 μM (concentration code D)
Method in brief: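 Transiently transfected HEK293 cells expressing GPR84, Gαi2-Rluc8, GFP10-Gγ2 and Gβ1, in Tyrode's buffer pH 7.5. Compounds pre-incubated 5 min at 37° C, then 200 nmol/L ZQ-16 for 5 min at room temperature; BRET² with coelenterazine 400A, ligand-promoted net BRET after background and vehicle subtraction.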
Target sequence in this assay (Q9NQS5 whole entry): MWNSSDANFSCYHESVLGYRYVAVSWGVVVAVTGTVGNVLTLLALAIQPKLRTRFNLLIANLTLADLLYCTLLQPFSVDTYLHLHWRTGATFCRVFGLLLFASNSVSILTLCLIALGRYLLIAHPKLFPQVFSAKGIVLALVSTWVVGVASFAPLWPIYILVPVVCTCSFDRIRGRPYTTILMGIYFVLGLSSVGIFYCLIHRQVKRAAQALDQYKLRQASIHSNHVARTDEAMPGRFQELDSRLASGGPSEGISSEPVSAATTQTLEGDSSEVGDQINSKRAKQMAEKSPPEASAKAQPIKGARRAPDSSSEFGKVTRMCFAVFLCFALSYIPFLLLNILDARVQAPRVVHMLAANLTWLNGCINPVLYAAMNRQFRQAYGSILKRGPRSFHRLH

neutrophils = experiment: Neutrophil migration assay (embelin as chemotactic agent, transwell, ATPlite readout); assay type: cell-based; conditions: for Human Neutrophil migration inhibition - fold potency to Control Compound: IC50 normalized to GPR84 antagonist Control Compound; for IC50: Neutrophil, human neutrophils, embelin as chemotactic agent, read-out: Human Neutrophil migration inhibition IC50
Experimental: Neutrophil migration assay. After isolation, neutrophils were resuspended in chemotaxis buffer (DMEM supplemented with 10 mM HEPES) at a concentration of 8.9×10^6 cells/ml. In a 96-well plate, 20 μl of compound solution in chemotaxis buffer is added to 180 μl of cell suspension. After incubation at 37° C. for 30 minutes, 75 μL of cell suspension is transferred in the upper chamber of a 5 μm pore size Corning HTS transwell. 235 μL of chemotaxis buffer containing the chemotactic agent (embelin) is added to the lower chamber of the transwell. After a 60-minute incubation time at 37° C. in 5% CO2, the upper chamber of the transwell is removed and the plate is centrifuged at 1500 rpm for 6 minutes. Supernatant is removed and cells resuspended in 100 ul of PBS. ATP content was assessed using ATPlite Luminescence Assay System® according to manufacturer instructions (Perkin Elmer, Buckinghamshire, UK). Briefly, 50 μL of ATPlite buffer and 50 μL of lysis solution is added to the lower chamber of the Transwells. After incubation at room temperature, in the dark with constant agitation for 5 minutes, 150 μL of cell lysate is transferred in a 96 wells white plate and incubated for 10 minutes in the dark. Luminescence is read on a TECAN plate reader, Infinite M1000 (Tecan, Morrisville, NC).
The compound numbers correspond to the compound numbers in Table 1. […] Normalization of the results takes the donor's variation into account.

[2] = test system: mouse dextran sodium sulfate-induced chronic inflammatory bowel disease model; conditions: once-daily doses of 3 and 10 mg/kg, mouse DSS-induced chronic IBD model; cited from earlier work
GPR84 [3] = molecular target: T1, GPR84; conditions: literature (Wang et al. 2006); read-out: potency of GPR84 activation; cited from earlier work
Target sequence in this assay (Q9NQS5 whole entry, species assumed): as the sequence (Q9NQS5 whole entry) above

Row | IC50 (GPR84 [1]) [µM] | inhibition at 10 µM (GPR84 [1]) [%] | SMILES | also measured
1 | < 5 |  | Cc1cc(OCC2COCCO2)cc(=O)n1Cc1cccc(C#CC2CC2)c1 (stereo not drawn) [Compound I-2] | inhibition at 25 µM (GPR84 [1]; compound tested at 25 μM (concentration code G)): > 75%; Human Neutrophil migration inhibition - fold potency to Control Compound (neutrophils): C (IC50≤0.5-fold relative to Control Compound); IC50 (neutrophils): > 3 µM
2 |  |  | Cc1cc(OC[C@H]2COc3ccccc3O2)cc(=O)n1Cc1cccc(C#CC2CC2)c1 [Compound I-30] | inhibition at 2 µM (GPR84 [1]): 25 to 50%; Human Neutrophil migration inhibition - fold potency to Control Compound (neutrophils): C (IC50≤0.5-fold relative to Control Compound); IC50 (neutrophils): 1 to 3 µM
3 |  | > 75 | Cc1cc(OCC2CCCOC2)cc(=O)n1[C@H](C)c1ccc(C#CC2CC2)cc1 (stereo partly drawn) [Compound I-222] | IC50 (neutrophils): 1 to 3 µM
4 | < 5 | > 75 | Cc1cc(OCc2ncccn2)cc(=O)n1[C@H](C)c1ccc(C#CC2CC2)cc1 [Compound I-223] | Human Neutrophil migration inhibition - fold potency to Control Compound (neutrophils): B (IC50 of >0.5-≤1.0-fold relative to Control Compound); IC50 (neutrophils): ≤ 0.3 µM
5 |  | > 75 | Cc1cc(OCc2nccn2C(C)C)cc(=O)n1[C@H](C)c1ccc(C#CC2CC2)cc1 [Compound I-348] | 
6 |  |  | Cc1cc(OCc2cncn2C)cc(=O)n1[C@H](C)c1ccc(C#CC2CC2)cc1 [Compound I-349] | inhibition at 2 µM (GPR84 [1]): > 75%
7 |  | > 75 | Cc1cc(OCc2ccn(C)n2)cc(=O)n1[C@H](C)c1ccc(C#CC2CC2)cc1 [Compound I-350] | 
8 | < 5 | > 75 | Cc1cc(OCc2ccnn2C)cc(=O)n1[C@H](C)c1ccc(C#CC2CC2)cc1 [Compound I-351] | 
9 |  | > 75 | Cc1cc(OCc2cnn(C)c2)cc(=O)n1[C@H](C)c1ccc(C#CC2CC2)cc1 [Compound I-352] | 
10 |  | < 25 | C#Cc1ccc(C(C)n2c(C)cc(OCc3ncccn3)cc2=O)cc1 (stereo not drawn) [Compound I-353] | 
11 |  |  | Cc1cc(OCc2ncccn2)cc(=O)n1C(C)c1ccc2cc(C3CC3)ccc2c1 (stereo not drawn) [Compound I-354] | inhibition at 2 µM (GPR84 [1]): < 25%
12 |  | 25 to 50 | Cc1cc(OCc2ncc[nH]2)cc(=O)n1[C@H](C)c1ccc(C#CC2CC2)cc1 [Compound I-355] | 
13 | < 5 |  | CCn1ccnc1COc1cc(C)n([C@H](C)c2ccc(C#CC3CC3)cc2)c(=O)c1 [Compound I-356] | inhibition at 2 µM (GPR84 [1]): > 75%
14 | < 5 |  | Cc1cc(OCc2cn(C)nn2)cc(=O)n1[C@H](C)c1ccc(C#CC2CC2)cc1 [Compound I-357] | inhibition at 2 µM (GPR84 [1]): > 75%
15 |  | > 75 | Cc1cc(OCc2cnn(C)n2)cc(=O)n1[C@H](C)c1ccc(C#CC2CC2)cc1 [Compound I-358] | 
16 | < 5 | > 75 | Cc1cc(OCc2cnnn2C)cc(=O)n1[C@H](C)c1ccc(C#CC2CC2)cc1 [Compound I-359] | 
17 | < 5 | > 75 | Cc1cc(NC(=O)c2ncccn2)cc(=O)n1[C@H](C)c1ccc(C#CC2CC2)cc1 [Compound I-360] | 
18 | < 5 |  | Cc1cc(OCc2nccn2C)cc(=O)n1C(C)c1ccc(C#CC2CC2)c(F)c1 (stereo not drawn) [Compound I-361] | inhibition at 2 µM (GPR84 [1]): > 75%
19 |  | > 75 | Cc1cc(OCc2ncccn2)cc(=O)n1C(C)c1cc(F)c(C#CC2CC2)c(F)c1 (stereo not drawn) [Compound I-362] | 
20 | < 5 |  | Cc1cc(OCc2cccnn2)cc(=O)n1C(C)c1ccc(C#CC2CC2)c(F)c1 (stereo not drawn) [Compound I-363] | inhibition at 2 µM (GPR84 [1]): > 75%
21 | < 5 | > 75 | Cc1cc(OCc2cncnc2)cc(=O)n1C(C)c1ccc(C#CC2CC2)c(F)c1 (stereo not drawn) [Compound I-364] | 
22 |  | > 75 | Cc1cc(OCc2ncco2)cc(=O)n1C(C)c1ccc(C#CC2CC2)c(F)c1 (stereo not drawn) [Compound I-365] | 
23 |  | > 75 | Cc1cc(OCc2ncccn2)cc(=O)n1C(C)c1ccc(C#CC2CCC2)c(F)c1 (stereo not drawn) [Compound I-366] | 
24 |  | < 25 | Cc1cc(OCc2ncccn2)cc(=O)n1C(C)C1CCN(c2ccc(C3CC3)cc2)CC1 (stereo not drawn) [Compound I-368] | 
25 |  | > 75 | Cc1cc(OCc2c(F)ccc[n+]2[O-])cc(=O)n1[C@H](C)c1ccc(C#CC2CC2)cc1 [Compound I-369] | 
26 |  | > 75 | Cc1cc(N(C)Cc2ncccn2)cc(=O)n1[C@H](C)c1ccc(C#CC2CC2)cc1 [Compound I-372] | 
27 |  | > 75 | Cc1cc([C@@H](C)n2c(C)cc(OCc3ncccn3)cc2=O)ccc1C#CC1CC1 [Compound I-373] | 
28 | < 5 |  | Cc1cc(OC[C@@H]2COCCO2)cc(=O)n1[C@H](C)c1ccc(C#CC2CC2)cc1 [Compound I-396] | 
29 |  |  | O=c1nc(OC[C@@H]2COCCO2)cc2n1CCc1cc(C#CC3CC3)ccc1-2 [GLPG1205] | disease activity index score [2]: reduced; neutrophil infiltration [2]: reduced
30 |  |  | CCCCCCCCCCCC(=O)O [lauric acid] | EC50 (GPR84 [3]): 11 µM

— patent publication US20250340543A1, “GPR84 ANTAGONISTS AND USES THEREOF” (Liminal BioSciences Limited, priority 2021, published 2025)
